The text below walks through data of ChEMBL document CHEMBL4184192, “5-HT1A and 5-HT2A receptors affinity, docking studies and pharmacological evaluation of a series of 8-acetyl-7-hydroxy-4-methylcoumarin derivatives” (Bioorg Med Chem, 2018).

The source made the active and inactive calls. The calls are words filed in the database; no cut-off is given here.

Data set [1] addresses T1, 5-hydroxytryptamine receptor 1A (Homo sapiens, UniProt P08908).
T1 sequence (P08908 whole entry): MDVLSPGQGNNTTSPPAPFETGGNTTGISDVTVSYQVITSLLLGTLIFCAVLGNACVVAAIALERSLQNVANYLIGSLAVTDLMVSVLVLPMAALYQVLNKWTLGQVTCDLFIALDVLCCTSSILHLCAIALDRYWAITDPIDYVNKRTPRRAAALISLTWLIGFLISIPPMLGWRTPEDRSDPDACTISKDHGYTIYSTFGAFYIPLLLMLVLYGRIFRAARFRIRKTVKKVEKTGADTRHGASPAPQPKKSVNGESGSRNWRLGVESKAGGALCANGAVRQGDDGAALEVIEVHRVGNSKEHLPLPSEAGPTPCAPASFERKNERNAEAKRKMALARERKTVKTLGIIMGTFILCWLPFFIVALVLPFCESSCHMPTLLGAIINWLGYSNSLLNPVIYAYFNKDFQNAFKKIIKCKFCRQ
The data set can be described thus: Displacement of [3H]-8-OH-DPAT from human 5-HT1A receptor expressed in CHO-K1 cell membranes after 60 mins by microbeta scintillation counting analysis. In general terms: Displacement assays read how much labelled ligand stays bound in the presence of the test substance.

Data set [2] deals with 5-hydroxytryptamine receptor 2A (Homo sapiens, UniProt P28223). The data set can be described thus: Displacement of [3H]-ketanserin from human 5-HT2A receptor expressed in CHO-K1 cell membranes after 60 mins by microbeta scintillation counting analysis. The class given is cell-based.
Chain of 5-hydroxytryptamine receptor 2A (P28223 whole entry): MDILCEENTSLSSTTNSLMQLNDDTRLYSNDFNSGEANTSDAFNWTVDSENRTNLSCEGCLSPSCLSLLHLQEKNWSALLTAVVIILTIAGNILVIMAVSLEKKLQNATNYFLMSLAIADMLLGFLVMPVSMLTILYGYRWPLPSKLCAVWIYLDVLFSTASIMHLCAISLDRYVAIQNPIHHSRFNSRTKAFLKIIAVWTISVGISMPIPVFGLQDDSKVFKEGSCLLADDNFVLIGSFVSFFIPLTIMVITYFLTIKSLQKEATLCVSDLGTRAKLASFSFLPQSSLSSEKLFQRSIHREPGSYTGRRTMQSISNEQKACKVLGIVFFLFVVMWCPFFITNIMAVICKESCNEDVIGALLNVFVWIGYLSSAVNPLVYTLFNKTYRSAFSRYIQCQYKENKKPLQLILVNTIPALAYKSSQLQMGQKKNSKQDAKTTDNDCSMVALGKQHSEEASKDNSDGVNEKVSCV
In data set [3] the target is T2, 5-hydroxytryptamine receptor 1A (Rattus norvegicus) (UniProt P19327).
T2 sequence (whole entry): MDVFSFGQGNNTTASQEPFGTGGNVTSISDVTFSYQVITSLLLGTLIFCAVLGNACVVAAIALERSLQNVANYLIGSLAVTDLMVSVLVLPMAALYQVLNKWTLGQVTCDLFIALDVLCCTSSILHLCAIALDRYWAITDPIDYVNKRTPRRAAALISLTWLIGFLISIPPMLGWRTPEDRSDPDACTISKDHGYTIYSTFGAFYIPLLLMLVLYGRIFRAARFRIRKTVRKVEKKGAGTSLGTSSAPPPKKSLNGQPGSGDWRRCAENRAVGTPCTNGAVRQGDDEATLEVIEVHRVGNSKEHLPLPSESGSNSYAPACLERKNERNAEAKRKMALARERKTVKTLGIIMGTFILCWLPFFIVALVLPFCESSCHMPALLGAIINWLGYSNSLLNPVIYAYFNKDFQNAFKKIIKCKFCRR
Put plainly: Agonist activity at 5-HT1A receptor in Sprague-Dawley rat hippocampal membranes at 10^-10 to 10^-5 M after 90 mins by microbeta scintillation counting based [35S]GTPgammaS binding assay relative to control. The class given is functional. On the technique in general: GTPγS is a poorly hydrolysed GTP analogue; its binding reports G protein activation.

Data set [4] deals with T3, 5-hydroxytryptamine receptor 1A (Rattus norvegicus, UniProt P19327).
T3 sequence (P19327 whole entry): T2 sequence (whole entry)
The data set can be described thus: Agonist activity at 5-HT1A receptor in Sprague-Dawley rat hippocampal membranes after 90 mins by microbeta scintillation counting based [35S]GTPgammaS binding assay. The class given is functional.

Data set [5] addresses T2, 5-hydroxytryptamine receptor 1A (Rattus norvegicus). Put plainly: Antagonist activity at 5-HT1A receptor in Sprague-Dawley rat hippocampal membranes assessed as inhibition of 8-OH-DPAT-induced receptor activation at 10^-10 to 10^-5 M after 90 mins by microbeta scintillation counting based [35S]GTPgammaS binding assay relative to control. It counts as functional.
Data set [6] deals with T3, 5-hydroxytryptamine receptor 1A. Put plainly: Antagonist activity at 5-HT1A receptor in Sprague-Dawley rat hippocampal membranes assessed as inhibition of 8-OH-DPAT-induced receptor activation after 90 mins by microbeta scintillation counting based [35S]GTPgammaS binding assay. The class given is functional.
Data set [7] deals with Mus musculus. Put plainly: Pro-depressant activity in Balb/c mouse assessed as decrease in immobility time administered ip 30 mins prior to test measured for 6 mins by tail suspension test. The class given is ADME, organism-based. The conditions noted are these: in vivo, 0.1 h.
Data set [8] deals with Mus musculus. Put plainly: Antidepressant activity in Balb/c mouse assessed as decrease in immobility time at 0.3 to 1 mg/kg, ip administered 30 mins prior to test measured for 6 mins by tail suspension test. It counts as functional, organism-based.
Data set [9] relates to Mus musculus. Put plainly: Pro-depressant activity in Balb/c mouse assessed as decrease in immobility time at 3 to 10 mg/kg, ip administered 30 mins prior to test measured for 6 mins by tail suspension test. The class given is ADME, organism-based. The following applies: in vivo, 0.1 h.
The species named for data set [10] is Mus musculus. The data set can be described thus: Pro-depressant activity in Balb/c mouse assessed as decrease in home cage activity. It counts as ADME, organism-based. The following applies: in vivo.
The subject of data set [11] is Mus musculus. Put plainly: Antidepressant activity in Balb/c mouse assessed as decrease in immobility time administered ip 30 mins prior to test measured for 6 mins by tail suspension test. The class given is functional, organism-based.
Data set [12] deals with Mus musculus. Put plainly: Toxicity in Balb/c mouse assessed as alterations in despair-related locomotor activity at 0.3 to 10 mg/kg, ip administered 30 mins prior to test. The following applies: in vivo, 0.5 h. It counts as organism-based.
Data set [13] deals with Mus musculus. Put plainly: Toxicity in Balb/c mouse assessed as alterations in visible locomotor activity at 0.3 to 10 mg/kg, ip administered 30 mins prior to test. The class given is organism-based. The following applies: in vivo, 0.5 h.

On to `CC(=O)c1c(OCCCN2CCN(c3cc(C)cc(C)c3)CC2)ccc2c(C)cc(=O)oc12`, for which the Ki (in general, a dissociation constant, usually derived from enzyme kinetics or from competition with a known ligand) came out at 0.9 nM in [1] and 12.5 nM in [2].
With `CC(=O)c1c(OCCCN2CCN(c3cccc(F)c3)CC2)ccc2c(C)cc(=O)oc12`, the figures for the Ki in [1] and in data set [2] were 1350 nM and 408 nM, respectively.
Consider `CC(=O)c1c(OCCCCN2CCN(c3cccc(F)c3)CC2)ccc2c(C)cc(=O)oc12`, for which the Ki was 50 nM in data set [1] and 400 nM in data set [2].
For `COc1ccccc1N1CCN(CCCCOc2ccc3c(C)cc(=O)oc3c2C(C)=O)CC1`, the inhibition constant Ki in [1] was 1 nM; in data set [2] it was 56 nM.
`CC(=O)c1c(OCCCN2CCN(c3ccccc3Cl)CC2)ccc2c(C)cc(=O)oc12`: the Ki in [1] was 2 nM; in [2] it was 22 nM.
In the same order, the values of `CC(=O)c1c(OCCCCN2CCN(c3cccc(Br)c3)CC2)ccc2c(C)cc(=O)oc12` are 2.5 nM and 6.5 nM.
In the same order, the values of `CC(=O)c1c(OCCCCN2CCN(c3ccccc3Cl)CC2)ccc2c(C)cc(=O)oc12` are 0.9 nM and 20 nM.
Consider `CC(=O)c1c(OCCCN2CCN(c3cc(C)ccc3C)CC2)ccc2c(C)cc(=O)oc12`, for which the Ki is 14 nM in data set [1] and 102 nM in data set [2].
Take `CC(=O)c1c(OCCCCN2CCN(c3cc(C)ccc3C)CC2)ccc2c(C)cc(=O)oc12`: the Ki in data set [1] came to 5.4 nM; in data set [2] it was 46.8 nM.
Take `CC(=O)c1c(OCCCN2CCN(c3ccccc3Br)CC2)ccc2c(C)cc(=O)oc12`: the Ki in data set [1] was determined as 0.5 nM; in data set [2], 7 nM. The Emax (as a rule, the greatest response seen or fitted, relative to the assay's reference) in [3] was 112%. Moreover, the EC50 – broadly, the concentration needed to bring the measured effect to its halfway point – was 39.8 nM in [4] and 126 nM in data set [6]. The inhibition (commonly the change of the read-out against control, counted positive when it falls) in data set [5] was determined as 82%. Further, the Activity entry in the data set with Mus musculus [7] is “Dose-dependent effect”; in the data set with Mus musculus [9] it was “Toxic”; in the data set listed under Mus musculus [10], “Toxic”. Besides, the outcome in the data set with Mus musculus [8] was inactive.
Consider `CC(=O)c1c(OCCCCN2CCN(c3cc(C)cc(C)c3)CC2)ccc2c(C)cc(=O)oc12`, for which the inhibition constant (Ki) in data set [1] was 3.7 nM; in [2], 58 nM.
For `CC(=O)c1c(OCCCN2CCN(c3cccc(Br)c3)CC2)ccc2c(C)cc(=O)oc12`, the Ki in data set [1] stood at 3.5 nM; in [2] it was 6 nM.
Take `CC(=O)c1c(OCCCN2CCN(c3ccccc3C(F)(F)F)CC2)ccc2c(C)cc(=O)oc12`: the Ki in data set [1] was found to be 8.8 nM; in data set [2], 20 nM.
The corresponding values for `CC(=O)c1c(OCCCCN2CCN(c3ccccc3C(F)(F)F)CC2)ccc2c(C)cc(=O)oc12` are 11 nM and 48.7 nM.
Consider `CNCCC(Oc1ccc(C(F)(F)F)cc1)c1ccccc1` (configuration not stated), for which the Activity result in the data set with Mus musculus [11] is “Dose-dependent effect”.
As to `COc1ccccc1N1CCN(CCCOc2ccc3c(C)cc(=O)oc3c2C(C)=O)CC1`, the Ki in data set [1] worked out at 0.6 nM; in data set [2], 8 nM. In addition, the Emax in [3] came out at 108%. In addition, the values for the EC50 in [4] and in [6] were 2 nM and 631 nM, respectively. The inhibition in [5] was determined as 70%. The Activity result with Mus musculus [12] and with Mus musculus [13] was “Non-Toxic” throughout.
With `CC(=O)c1c(OCCCCN2CCN(c3ccccc3Br)CC2)ccc2c(C)cc(=O)oc12`, the Ki came out at 1.5 nM in data set [1] and 10 nM in data set [2].
